From the supplement of paper PMC10307832

Experiments:
Assay in all cases: relative viability (nuclei count vs DMSO), 5 days (fraction); higher = more cells survive
LCLC-103H = tested on: LCLC-103H
Summary of the method: (§1)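 Relative viability divides the nuclei count in treated wells by that in vehicle wells. Lung cancer cell lines were seeded in 1536-well plates, dosed by pin tool the next day, and fixed and stained after 5 days in one step with final 0.05% Triton X-100, 1% formaldehyde and 1 ug/ml Hoechst. Dosing was a single drug or a fixed anchor-drug dose plus five library-drug doses (not always all listed) in √10 steps, and values are medians of duplicate plates imaged at 4×.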

NCI-H1666 = tested on: NCI-H1666
Summary of the method: as §1

LOU-NH91 = tested on: LOU-NH91
Summary of the method: as §1

NCI-H647 = tested on: NCI-H647
Summary of the method: as §1

PC-14 = tested on: PC-14
Summary of the method: as §1

LXF-289 = tested on: LXF-289
Summary of the method: as §1

HCC-827 = tested on: HCC-827
Summary of the method: as §1

LK-2 = tested on: LK-2
Summary of the method: as §1

NCI-H727 = tested on: NCI-H727
Summary of the method: as §1

BEN = tested on: BEN
Summary of the method: as §1

NCI-H2170 = tested on: NCI-H2170
Summary of the method: as §1

NCI-H661 = tested on: NCI-H661
Summary of the method: as §1

NCI-H1993 = tested on: NCI-H1993
Summary of the method: as §1

SK-MES-1 = tested on: SK-MES-1
Summary of the method: as §1

HOP-62 = tested on: HOP-62
Summary of the method: as §1

NCI-H441 = tested on: NCI-H441
Summary of the method: as §1

RERF-LC-KJ = tested on: RERF-LC-KJ
Summary of the method: as §1

NCI-H1437 = tested on: NCI-H1437
Summary of the method: as §1

EKVX = tested on: EKVX
Summary of the method: as §1

ChaGo-K-1 = tested on: ChaGo-K-1
Summary of the method: as §1

NCI-H2126 = tested on: NCI-H2126
Summary of the method: as §1

NCI-H1944 = tested on: NCI-H1944
Summary of the method: as §1

NCI-H1355 = tested on: NCI-H1355
Summary of the method: as §1

Cc1csc(=NC2CCCCC2)n1/N=C/c1ccc(O)c(O)c1O [MIM1] + N=C(N)NC(=N)NCCc1ccccc1 [Phenformin] (partner 250 µM)
relative viability (LCLC-103H; first compound 0.2 µM): 0.334
relative viability (LCLC-103H; first compound 0.6325 µM): 0.297
relative viability (LCLC-103H; first compound 2 µM): 0.354
relative viability (LCLC-103H; first compound 6.325 µM): 0.334
relative viability (LCLC-103H; first compound 20 µM): 0.291
relative viability (NCI-H1666; first compound 0.2 µM): 0.578
relative viability (NCI-H1666; first compound 0.6325 µM): 0.607
relative viability (NCI-H1666; first compound 2 µM): 0.517
relative viability (NCI-H1666; first compound 6.325 µM): 0.456
relative viability (NCI-H1666; first compound 20 µM): 0.26
relative viability (LOU-NH91; first compound 0.2 µM): 0.695
relative viability (LOU-NH91; first compound 0.6325 µM): 0.709
relative viability (LOU-NH91; first compound 2 µM): 0.625
relative viability (LOU-NH91; first compound 6.325 µM): 0.548
relative viability (LOU-NH91; first compound 20 µM): 0.302
relative viability (NCI-H647; first compound 0.2 µM): 0.602
relative viability (NCI-H647; first compound 0.6325 µM): 0.431
relative viability (NCI-H647; first compound 6.325 µM): 0.4
relative viability (NCI-H647; first compound 20 µM): 0.0969
relative viability (PC-14; first compound 0.2 µM): 0.662
relative viability (PC-14; first compound 0.6325 µM): 0.575
relative viability (PC-14; first compound 2 µM): 0.558
relative viability (PC-14; first compound 6.325 µM): 0.328
relative viability (PC-14; first compound 20 µM): 0.237
relative viability (LXF-289; first compound 0.2 µM): 0.517
relative viability (LXF-289; first compound 0.6325 µM): 0.476
relative viability (LXF-289; first compound 2 µM): 0.532
relative viability (LXF-289; first compound 6.325 µM): 0.452
relative viability (LXF-289; first compound 20 µM): 0.264
relative viability (HCC-827; first compound 0.2 µM): 0.412
relative viability (HCC-827; first compound 0.6325 µM): 0.377
relative viability (HCC-827; first compound 2 µM): 0.404
relative viability (HCC-827; first compound 6.325 µM): 0.31
relative viability (HCC-827; first compound 20 µM): 0.13
relative viability (LK-2; first compound 0.2 µM): 0.602
relative viability (LK-2; first compound 2 µM): 0.49
relative viability (LK-2; first compound 6.325 µM): 0.147
relative viability (LK-2; first compound 20 µM): 0.148
relative viability (NCI-H727; first compound 0.2 µM): 0.513
relative viability (NCI-H727; first compound 0.6325 µM): 0.559
relative viability (NCI-H727; first compound 2 µM): 0.481
relative viability (NCI-H727; first compound 6.325 µM): 0.561
relative viability (NCI-H727; first compound 20 µM): 0.301
relative viability (BEN; first compound 0.2 µM): 0.261
relative viability (BEN; first compound 0.6325 µM): 0.236
relative viability (BEN; first compound 2 µM): 0.236
relative viability (BEN; first compound 6.325 µM): 0.28
relative viability (BEN; first compound 20 µM): 0.213
relative viability (NCI-H2170; first compound 0.2 µM): 0.407
relative viability (NCI-H2170; first compound 0.6325 µM): 0.406
relative viability (NCI-H2170; first compound 2 µM): 0.414
relative viability (NCI-H2170; first compound 6.325 µM): 0.264
relative viability (NCI-H2170; first compound 20 µM): 0.172
relative viability (NCI-H661; first compound 0.2 µM): 0.254
relative viability (NCI-H661; first compound 0.6325 µM): 0.28
relative viability (NCI-H661; first compound 2 µM): 0.274
relative viability (NCI-H661; first compound 6.325 µM): 0.26
relative viability (NCI-H661; first compound 20 µM): 0.24
relative viability (NCI-H1993; first compound 0.2 µM): 0.481
relative viability (NCI-H1993; first compound 0.6325 µM): 0.545
relative viability (NCI-H1993; first compound 2 µM): 0.474
relative viability (NCI-H1993; first compound 6.325 µM): 0.443
relative viability (NCI-H1993; first compound 20 µM): 0.463
relative viability (SK-MES-1; first compound 0.2 µM): 0.643
relative viability (SK-MES-1; first compound 0.6325 µM): 0.665
relative viability (SK-MES-1; first compound 2 µM): 0.617
relative viability (SK-MES-1; first compound 6.325 µM): 0.484
relative viability (SK-MES-1; first compound 20 µM): 0.41
relative viability (HOP-62; first compound 0.2 µM): 0.641
relative viability (HOP-62; first compound 0.6325 µM): 0.603
relative viability (HOP-62; first compound 2 µM): 0.624
relative viability (HOP-62; first compound 6.325 µM): 0.608
relative viability (HOP-62; first compound 20 µM): 0.157
relative viability (NCI-H441; first compound 0.2 µM): 0.914
relative viability (NCI-H441; first compound 2 µM): 0.865
relative viability (NCI-H441; first compound 6.325 µM): 0.543
relative viability (NCI-H441; first compound 20 µM): 0.203
relative viability (RERF-LC-KJ; first compound 0.2 µM): 0.447
relative viability (RERF-LC-KJ; first compound 0.6325 µM): 0.414
relative viability (RERF-LC-KJ; first compound 2 µM): 0.348
relative viability (RERF-LC-KJ; first compound 6.325 µM): 0.353
relative viability (RERF-LC-KJ; first compound 20 µM): 0.303
relative viability (NCI-H1437; first compound 0.2 µM): 0.256
relative viability (NCI-H1437; first compound 0.6325 µM): 0.246
relative viability (NCI-H1437; first compound 2 µM): 0.244
relative viability (NCI-H1437; first compound 6.325 µM): 0.205
relative viability (NCI-H1437; first compound 20 µM): 0.217
relative viability (EKVX; first compound 0.2 µM): 0.253
relative viability (EKVX; first compound 0.6325 µM): 0.144
relative viability (EKVX; first compound 2 µM): 0.213
relative viability (EKVX; first compound 6.325 µM): 0.209
relative viability (EKVX; first compound 20 µM): 0.198
relative viability (ChaGo-K-1; first compound 0.2 µM): 0.521
relative viability (ChaGo-K-1; first compound 0.6325 µM): 0.49
relative viability (ChaGo-K-1; first compound 2 µM): 0.45
relative viability (ChaGo-K-1; first compound 6.325 µM): 0.227
relative viability (ChaGo-K-1; first compound 20 µM): 0.171
relative viability (NCI-H2126; first compound 0.2 µM): 0.512
relative viability (NCI-H2126; first compound 0.6325 µM): 0.524
relative viability (NCI-H2126; first compound 2 µM): 0.54
relative viability (NCI-H2126; first compound 6.325 µM): 0.45
relative viability (NCI-H2126; first compound 20 µM): 0.391
relative viability (NCI-H1944; first compound 0.2 µM): 0.208
relative viability (NCI-H1944; first compound 0.6325 µM): 0.206
relative viability (NCI-H1944; first compound 2 µM): 0.149
relative viability (NCI-H1944; first compound 6.325 µM): 0.163
relative viability (NCI-H1944; first compound 20 µM): 0.104
relative viability (NCI-H1355; first compound 0.2 µM): 0.46
relative viability (NCI-H1355; first compound 0.6325 µM): 0.351
relative viability (NCI-H1355; first compound 2 µM): 0.443
relative viability (NCI-H1355; first compound 6.325 µM): 0.399
relative viability (NCI-H1355; first compound 20 µM): 0.274
